Laboratory results reported in BigSolDB 2.1.

OC(Cc1ccccc1Cl)(Cn1[nH]cnc1=S)C1(Cl)CC1 (centres undefined)
solubility (mole fraction) (in acetonitrile, 283.15 K): 0.00629
solubility (mole fraction) (in acetonitrile, 288.15 K): 0.008
solubility (mole fraction) (in acetonitrile, 293.15 K): 0.0103
solubility (mole fraction) (in acetonitrile, 298.15 K): 0.0126
solubility (mole fraction) (in acetonitrile, 303.15 K): 0.0171
solubility (mole fraction) (in acetonitrile, 308.15 K): 0.0214
solubility (mole fraction) (in acetonitrile, 313.15 K): 0.0254
solubility (mole fraction) (in isopropanol, 283.15 K): 0.0115
solubility (mole fraction) (in isopropanol, 288.15 K): 0.0142
solubility (mole fraction) (in isopropanol, 293.15 K): 0.0176
solubility (mole fraction) (in isopropanol, 298.15 K): 0.0215
solubility (mole fraction) (in isopropanol, 303.15 K): 0.0268
solubility (mole fraction) (in isopropanol, 308.15 K): 0.0331
solubility (mole fraction) (in isopropanol, 313.15 K): 0.0385
solubility (mole fraction) (in methanol, 283.15 K): 0.01
solubility (mole fraction) (in methanol, 288.15 K): 0.0127
solubility (mole fraction) (in methanol, 293.15 K): 0.0154
solubility (mole fraction) (in methanol, 298.15 K): 0.019
solubility (mole fraction) (in methanol, 303.15 K): 0.0232
solubility (mole fraction) (in methanol, 308.15 K): 0.0307
solubility (mole fraction) (in methanol, 313.15 K): 0.0371
solubility (mole fraction) (in n-butanol, 283.15 K): 0.0147
solubility (mole fraction) (in n-butanol, 288.15 K): 0.018
solubility (mole fraction) (in n-butanol, 293.15 K): 0.0215
solubility (mole fraction) (in n-butanol, 298.15 K): 0.0268
solubility (mole fraction) (in n-butanol, 303.15 K): 0.0327
solubility (mole fraction) (in n-butanol, 308.15 K): 0.0417
solubility (mole fraction) (in n-butanol, 313.15 K): 0.0513
solubility (mole fraction) (in n-propanol, 283.15 K): 0.0125
solubility (mole fraction) (in n-propanol, 288.15 K): 0.0161
solubility (mole fraction) (in n-propanol, 293.15 K): 0.0199
solubility (mole fraction) (in n-propanol, 298.15 K): 0.0248
solubility (mole fraction) (in n-propanol, 303.15 K): 0.0305
solubility (mole fraction) (in n-propanol, 308.15 K): 0.0373
solubility (mole fraction) (in n-propanol, 313.15 K): 0.0465
solubility (mole fraction) (in sec-butanol, 283.15 K): 0.00735
solubility (mole fraction) (in sec-butanol, 288.15 K): 0.00954
solubility (mole fraction) (in sec-butanol, 293.15 K): 0.0124
solubility (mole fraction) (in sec-butanol, 298.15 K): 0.0152
solubility (mole fraction) (in sec-butanol, 303.15 K): 0.0191
solubility (mole fraction) (in sec-butanol, 308.15 K): 0.0259
solubility (mole fraction) (in sec-butanol, 313.15 K): 0.0321
solubility (mole fraction) (in toluene, 283.15 K): 0.00196
solubility (mole fraction) (in toluene, 288.15 K): 0.00287
solubility (mole fraction) (in toluene, 293.15 K): 0.00368
solubility (mole fraction) (in toluene, 298.15 K): 0.00481
solubility (mole fraction) (in toluene, 303.15 K): 0.00574
solubility (mole fraction) (in toluene, 308.15 K): 0.00782
solubility (mole fraction) (in toluene, 313.15 K): 0.0101
